Experimental data published in patent publication US9750788B2 (priority 2013, dated 2017).
Values after ≈ are worked out from the molar mass of the structure shown. Square brackets hold non-standard residues; d marks the D form. Peptide text beside a SMILES is read from it. Aib = CC(C)(N)C(=O)O

Key:
[1] = physchem; type: physicochemical
[2] = tested on: blood glucose of diabetic db/db mice; assay: Glucose lowering in female diabetic dbdb-mice; type: in vivo; conditions: 100 μg/kg s.c.
Method: Female diabetic dbdb-mice (BKS.Cg− +Leprdb/+Leprdb/OlaHsd) 10 weeks of age at study start were used. Mice were habituated to feeding and housing conditions for at least 2 weeks. 7 days prior to study start, HbA1c were determined to allocate mice to groups, aiming to spread low, medium and high HbA1c-values and in consequence the group-means (n=8), as equally as possible. On the day of study, food was removed, directly before sampling for baseline glucose assessment (t=0 min) Immediately afterwards, compounds or vehicle (phosphor buffered saline, PBS) were administered subcutaneously, 100 μg/kg, 10 ml/kg. Afterwards, blood samples were drawn by tail tip incision at 15, 30, 60, 90, 120, 150, 180, 240, 360, 480 min and 24 h. Food was re-offered after the 480 min-sampling. Data were analysed by 2-W-ANOVA on repeated measurements, followed by Dunnett's test as post-hoc assessment, level of significance p<0.05.

[3] = in vivo; conditions: mouse, sc, 1 mg/kg
Method: Mice were dosed 1 mg/kg subcutaneously (s.c.). The mice were sacrificed and blood samples were collected after 0.25, 0.5, 1, 2, 4, 8, 16 and 24 hours post application. Plasma samples were analyzed after protein precipitation via liquid chromatography mass spectrometry (LC/MS). PK parameters and half-life were calculated using WinonLin Version 5.2.1 (non-compartment model).

[4] = type: physicochemical; conditions: buffer, 168 h
Description: The chemical stability is expressed as “% remaining peptide”.

CC[C@H](C)[C@H](NC(=O)[C@H](Cc1ccccc1)NC(=O)[C@H](CC(C)C)NC(=O)[C@H](CCCNC(=N)N)NC(=O)[C@@H](NC(=O)[C@H](C)NC(=O)[C@H](CCC(=O)O)NC(=O)[C@H](CCCCN)NC(=O)[C@H](CCC(=O)O)NC(=O)[C@H](CC(C)C)NC(=O)[C@H](CC(C)C)NC(=O)[C@H](CCCCN)NC(=O)[C@H](CO)NC(=O)[C@H](CC(C)C)NC(=O)[C@H](CC(=O)O)NC(=O)[C@H](CO)NC(=O)[C@@H](NC(=O)[C@H](Cc1ccccc1)NC(=O)[C@@H](NC(=O)CNC(=O)[C@H](CCC(=O)O)NC(=O)C(C)(C)NC(=O)[C@@H](N)Cc1ccc(O)cc1)[C@@H](C)O)[C@@H](C)O)C(C)C)C(=O)N[C@@H](CCC(=O)O)C(=O)N[C@@H](Cc1c[nH]c2ccccc12)C(=O)N[C@@H](CC(C)C)C(=O)N[C@@H](CCCCN)C(=O)N[C@@H](C)C(=O)NCC(=O)NCC(=O)N1CCC[C@H]1C(=O)N[C@@H](CO)C(=O)N[C@@H](CO)C(=O)NCC(=O)N[C@@H](C)C(=O)N1CCC[C@H]1C(=O)N1CCC[C@H]1C(=O)N1CCC[C@H]1C(=O)N[C@@H](CO)C(N)=O [SEQ ID NO: 8, Y-Aib-EGTFTSDLSKLLEKEAVRLFIEWLKAGGPSSGAPPPS-NH2] (H-Y[Aib]EGTFTSDLSKLLEKEAVRLFIEWLKAGGPSSGAPPPS-NH2)
solubility at 2 h ([1]; pH 4.5): 320 µg/mL (≈ 76.9 µM)
solubility at 2 h ([1]; pH 7.4): 270 µg/mL (≈ 64.8 µM)
maximal effect, glucose reduction ([2]; at t=30 min): ~13 mmol/L
reduction of glucose compared to vehicle control ([2]; from t=30 min to 24 h, p<0.05): statistical significant reduction of glucose
Cmax [3]: 2980 ng/mL
half-life [3]: 1.9 h
Stability (pH 4.5), % remaining peptide ([4]; pH 4.5): 100%
Stability (pH 7.4), % remaining peptide [4]: 100%

CC[C@H](C)[C@H](NC(=O)[C@H](Cc1ccccc1)NC(=O)[C@H](CC(C)C)NC(=O)[C@H](CCCNC(=N)N)NC(=O)[C@@H](NC(=O)[C@H](C)NC(=O)[C@H](CCC(=O)O)NC(=O)[C@H](CCC(=O)O)NC(=O)[C@H](CCC(=O)O)NC(=O)[C@H](CC(C)C)NC(=O)[C@H](CC(C)C)NC(=O)[C@H](CCCCN)NC(=O)[C@H](CO)NC(=O)[C@H](CC(C)C)NC(=O)[C@H](CC(=O)O)NC(=O)[C@H](CO)NC(=O)[C@@H](NC(=O)[C@H](Cc1ccccc1)NC(=O)[C@@H](NC(=O)CNC(=O)[C@H](CCC(=O)O)NC(=O)C(C)(C)NC(=O)[C@@H](N)Cc1ccc(O)cc1)[C@@H](C)O)[C@@H](C)O)C(C)C)C(=O)N[C@@H](CCC(=O)O)C(=O)N[C@@H](Cc1c[nH]c2ccccc12)C(=O)N[C@@H](CC(C)C)C(=O)N[C@@H](CCCCN)C(=O)N[C@@H](C)C(=O)NCC(=O)NCC(=O)N1CCC[C@H]1C(=O)N[C@@H](CO)C(=O)N[C@@H](CO)C(=O)NCC(=O)N[C@@H](C)C(=O)N1CCC[C@H]1C(=O)N1CCC[C@H]1C(=O)N1CCC[C@H]1C(=O)N[C@@H](CO)C(N)=O [SEQ ID NO: 10, Y-Aib-EGTFTSDLSKLLEEEAVRLFIEWLKAGGPSSGAPPPS-NH2] (H-Y[Aib]EGTFTSDLSKLLEEEAVRLFIEWLKAGGPSSGAPPPS-NH2)
solubility at 2 h ([1]; pH 7.4): 990 µg/mL (≈ 238 µM)
Stability (pH 7.4), % remaining peptide [4]: 100%
